Reference: the kinase profiling compilation of Christmann-Franck et al. (2016)

Key:
Assay in all cases: KINOMEscan competition binding
[1] = biological target: PTK2B (human) (UniProt Q14289)
[2] = biological target: TAOK3 (human) (UniProt Q9H2K8)
[3] = biological target: HIPK1 (human) (UniProt Q86Z02)
[4] = biological target: MET (human) (UniProt P08581)
[5] = biological target: RIPK1 (human) (UniProt Q13546)
[6] = biological target: EPHA5 (human) (UniProt P54756)
[7] = biological target: FGFR4 (human) (UniProt P22455)
[8] = biological target: EPHA3 (human) (UniProt P29320)
[9] = biological target: EPHB4 (human) (UniProt P54760)
[10] = biological target: CDKL3 (human) (UniProt Q8IVW4)
[11] = biological target: PIK3CA (human), P42336 [C420R]
[12] = biological target: MYLK4 (human) (UniProt Q86YV6)
[13] = biological target: ABL1 (human), P00519 [Q252H]
[14] = biological target: PRKACB (human) (UniProt P22694)
[15] = biological target: MYO3A (human) (UniProt Q8NEV4)
[16] = biological target: ULK3 (human) (UniProt Q6PHR2)
[17] = biological target: INSRR (human) (UniProt P14616)
[18] = biological target: TYK2 JH2 pseudokinase (human) (UniProt P29597)
[19] = biological target: PIK3CA (human), P42336 [Q546K]
[20] = biological target: TSSK1B (human) (UniProt Q9BXA7)
[21] = biological target: FLT4 (human) (UniProt P35916)
[22] = biological target: MUSK (human) (UniProt O15146)
[23] = biological target: EPHB3 (human) (UniProt P54753)
[24] = biological target: MYLK3 (human) (UniProt Q32MK0)

Chain of ULK3 (human) (Q6PHR2 whole entry, looked up): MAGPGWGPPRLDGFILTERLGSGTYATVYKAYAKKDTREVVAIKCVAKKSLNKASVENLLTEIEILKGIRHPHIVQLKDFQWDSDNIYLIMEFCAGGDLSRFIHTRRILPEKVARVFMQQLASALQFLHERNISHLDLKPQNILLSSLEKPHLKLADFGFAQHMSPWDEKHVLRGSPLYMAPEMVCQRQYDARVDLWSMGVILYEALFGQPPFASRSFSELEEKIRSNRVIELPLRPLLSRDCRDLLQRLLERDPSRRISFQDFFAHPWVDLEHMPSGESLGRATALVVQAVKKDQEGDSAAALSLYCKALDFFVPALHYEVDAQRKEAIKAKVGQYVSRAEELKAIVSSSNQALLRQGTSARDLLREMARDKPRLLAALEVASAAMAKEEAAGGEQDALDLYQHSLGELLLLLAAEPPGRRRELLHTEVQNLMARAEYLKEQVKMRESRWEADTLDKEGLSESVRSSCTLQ
Chain of PIK3CA (human), P42336 [Q546K] (P42336 whole entry Q546K, looked up): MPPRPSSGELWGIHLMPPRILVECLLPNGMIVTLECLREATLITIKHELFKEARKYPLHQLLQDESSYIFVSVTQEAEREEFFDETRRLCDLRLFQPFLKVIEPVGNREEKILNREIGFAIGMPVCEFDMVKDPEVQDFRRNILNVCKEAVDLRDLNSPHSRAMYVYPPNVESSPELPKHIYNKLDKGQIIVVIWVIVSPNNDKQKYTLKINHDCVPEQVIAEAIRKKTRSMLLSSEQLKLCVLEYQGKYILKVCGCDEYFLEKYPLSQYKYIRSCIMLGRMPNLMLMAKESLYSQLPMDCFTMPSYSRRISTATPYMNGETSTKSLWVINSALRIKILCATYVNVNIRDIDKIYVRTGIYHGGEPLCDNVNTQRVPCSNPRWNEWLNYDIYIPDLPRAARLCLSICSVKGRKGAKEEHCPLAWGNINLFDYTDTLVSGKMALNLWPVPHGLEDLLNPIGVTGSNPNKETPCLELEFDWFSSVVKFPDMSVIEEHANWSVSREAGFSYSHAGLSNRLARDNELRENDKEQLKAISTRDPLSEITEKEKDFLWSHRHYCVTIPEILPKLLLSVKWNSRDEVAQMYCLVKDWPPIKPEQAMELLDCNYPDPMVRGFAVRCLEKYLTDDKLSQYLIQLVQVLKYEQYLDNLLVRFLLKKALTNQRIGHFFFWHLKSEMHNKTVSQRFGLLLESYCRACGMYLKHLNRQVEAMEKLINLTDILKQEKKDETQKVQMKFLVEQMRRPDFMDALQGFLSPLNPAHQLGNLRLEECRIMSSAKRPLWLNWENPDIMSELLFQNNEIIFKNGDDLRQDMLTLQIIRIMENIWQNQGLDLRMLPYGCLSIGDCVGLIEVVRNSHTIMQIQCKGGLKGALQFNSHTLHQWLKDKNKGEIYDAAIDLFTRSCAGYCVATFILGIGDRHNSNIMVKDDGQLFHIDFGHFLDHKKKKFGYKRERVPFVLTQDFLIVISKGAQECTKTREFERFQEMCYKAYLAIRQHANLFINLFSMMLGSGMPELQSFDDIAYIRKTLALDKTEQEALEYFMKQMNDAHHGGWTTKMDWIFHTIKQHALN
Chain of TAOK3 (human) (Q9H2K8 whole entry, looked up): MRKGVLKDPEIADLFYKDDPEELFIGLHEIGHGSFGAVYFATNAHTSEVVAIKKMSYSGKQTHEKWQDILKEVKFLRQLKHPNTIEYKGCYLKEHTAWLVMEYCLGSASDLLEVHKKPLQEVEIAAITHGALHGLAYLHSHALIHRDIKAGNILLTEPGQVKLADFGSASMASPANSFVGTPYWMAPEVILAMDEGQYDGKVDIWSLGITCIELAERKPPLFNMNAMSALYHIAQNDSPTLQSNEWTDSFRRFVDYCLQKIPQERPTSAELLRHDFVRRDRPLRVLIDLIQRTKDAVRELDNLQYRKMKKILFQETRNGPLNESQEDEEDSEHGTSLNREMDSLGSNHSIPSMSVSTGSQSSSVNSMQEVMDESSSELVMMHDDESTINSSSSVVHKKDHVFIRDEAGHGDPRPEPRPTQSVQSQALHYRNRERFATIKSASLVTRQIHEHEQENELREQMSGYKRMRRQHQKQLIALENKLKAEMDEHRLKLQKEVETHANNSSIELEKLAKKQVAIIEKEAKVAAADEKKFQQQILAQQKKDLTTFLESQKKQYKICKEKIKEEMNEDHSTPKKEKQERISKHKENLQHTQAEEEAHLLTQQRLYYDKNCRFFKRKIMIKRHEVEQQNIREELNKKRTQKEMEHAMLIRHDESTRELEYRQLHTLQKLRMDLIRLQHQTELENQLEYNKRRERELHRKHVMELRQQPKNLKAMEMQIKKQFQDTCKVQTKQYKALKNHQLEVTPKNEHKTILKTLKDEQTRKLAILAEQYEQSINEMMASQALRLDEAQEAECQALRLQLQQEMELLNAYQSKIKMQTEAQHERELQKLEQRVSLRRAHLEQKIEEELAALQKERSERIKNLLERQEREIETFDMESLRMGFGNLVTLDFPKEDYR
Chain of HIPK1 (human) (Q86Z02 whole entry, looked up): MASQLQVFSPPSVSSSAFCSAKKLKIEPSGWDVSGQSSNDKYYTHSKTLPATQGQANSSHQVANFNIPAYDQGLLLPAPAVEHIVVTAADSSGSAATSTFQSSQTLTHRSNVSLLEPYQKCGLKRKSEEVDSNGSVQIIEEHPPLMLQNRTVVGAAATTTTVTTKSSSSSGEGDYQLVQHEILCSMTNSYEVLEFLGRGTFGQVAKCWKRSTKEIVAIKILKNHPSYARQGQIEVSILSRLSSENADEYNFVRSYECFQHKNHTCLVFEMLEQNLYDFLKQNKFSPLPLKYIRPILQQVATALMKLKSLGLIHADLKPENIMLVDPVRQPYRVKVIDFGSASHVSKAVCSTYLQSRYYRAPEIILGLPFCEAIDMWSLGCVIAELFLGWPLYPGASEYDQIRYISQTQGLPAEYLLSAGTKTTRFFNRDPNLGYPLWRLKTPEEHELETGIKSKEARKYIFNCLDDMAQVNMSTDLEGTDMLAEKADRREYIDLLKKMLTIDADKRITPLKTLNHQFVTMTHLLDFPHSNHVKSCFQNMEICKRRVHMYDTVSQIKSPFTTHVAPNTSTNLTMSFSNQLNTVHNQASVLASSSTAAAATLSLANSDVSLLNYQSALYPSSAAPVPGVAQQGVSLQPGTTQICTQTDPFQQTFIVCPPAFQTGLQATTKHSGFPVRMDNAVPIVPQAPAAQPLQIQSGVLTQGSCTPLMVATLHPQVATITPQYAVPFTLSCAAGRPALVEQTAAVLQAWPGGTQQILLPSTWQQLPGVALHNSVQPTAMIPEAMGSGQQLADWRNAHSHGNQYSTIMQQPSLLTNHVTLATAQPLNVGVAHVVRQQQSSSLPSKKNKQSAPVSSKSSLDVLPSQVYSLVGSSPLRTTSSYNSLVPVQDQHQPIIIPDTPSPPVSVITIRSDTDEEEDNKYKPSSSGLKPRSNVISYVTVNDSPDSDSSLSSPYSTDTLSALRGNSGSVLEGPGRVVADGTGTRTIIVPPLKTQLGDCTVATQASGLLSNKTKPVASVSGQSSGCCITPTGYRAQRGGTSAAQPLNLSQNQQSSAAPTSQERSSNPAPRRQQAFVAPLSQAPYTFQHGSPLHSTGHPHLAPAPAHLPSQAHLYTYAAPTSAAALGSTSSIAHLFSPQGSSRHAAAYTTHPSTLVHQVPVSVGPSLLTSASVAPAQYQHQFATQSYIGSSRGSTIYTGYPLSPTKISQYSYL
Chain of FGFR4 (human) (P22455 whole entry, looked up): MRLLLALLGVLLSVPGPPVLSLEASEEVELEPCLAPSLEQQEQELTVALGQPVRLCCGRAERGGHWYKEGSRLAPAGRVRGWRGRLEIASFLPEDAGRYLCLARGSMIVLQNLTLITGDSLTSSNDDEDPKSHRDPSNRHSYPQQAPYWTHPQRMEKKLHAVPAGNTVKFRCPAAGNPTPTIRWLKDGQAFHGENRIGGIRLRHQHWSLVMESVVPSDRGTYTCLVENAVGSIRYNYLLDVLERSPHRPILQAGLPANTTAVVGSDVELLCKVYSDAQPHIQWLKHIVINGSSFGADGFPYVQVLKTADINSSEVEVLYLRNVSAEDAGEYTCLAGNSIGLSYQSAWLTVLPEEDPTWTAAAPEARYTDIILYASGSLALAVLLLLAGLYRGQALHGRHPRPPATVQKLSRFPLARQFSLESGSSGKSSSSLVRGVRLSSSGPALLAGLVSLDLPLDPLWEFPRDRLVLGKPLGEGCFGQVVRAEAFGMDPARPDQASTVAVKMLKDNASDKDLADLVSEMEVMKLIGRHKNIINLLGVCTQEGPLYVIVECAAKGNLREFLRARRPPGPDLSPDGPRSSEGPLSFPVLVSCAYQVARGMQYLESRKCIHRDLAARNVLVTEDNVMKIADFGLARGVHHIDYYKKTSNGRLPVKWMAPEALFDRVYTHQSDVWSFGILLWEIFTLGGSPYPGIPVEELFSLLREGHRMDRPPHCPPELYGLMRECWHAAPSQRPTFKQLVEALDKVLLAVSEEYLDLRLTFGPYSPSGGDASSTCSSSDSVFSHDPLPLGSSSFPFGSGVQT
Chain of PIK3CA (human), P42336 [C420R] (P42336 whole entry C420R, looked up): as the sequence (P42336 whole entry Q546K, looked up) above, with C420R, K546Q counted along it
Chain of TSSK1B (human) (Q9BXA7 whole entry, looked up): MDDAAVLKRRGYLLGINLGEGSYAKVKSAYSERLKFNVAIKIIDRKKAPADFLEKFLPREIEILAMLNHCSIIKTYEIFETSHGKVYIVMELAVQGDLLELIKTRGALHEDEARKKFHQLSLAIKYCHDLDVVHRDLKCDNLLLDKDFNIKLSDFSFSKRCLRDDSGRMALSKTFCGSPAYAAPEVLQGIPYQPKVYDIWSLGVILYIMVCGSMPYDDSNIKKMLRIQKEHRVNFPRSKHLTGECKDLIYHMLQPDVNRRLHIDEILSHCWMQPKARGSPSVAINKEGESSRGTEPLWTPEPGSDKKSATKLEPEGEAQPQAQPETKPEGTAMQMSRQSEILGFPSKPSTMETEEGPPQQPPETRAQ

COc1cc2ncnc(Oc3cccc(NC(=O)Nc4cc(C(C)(C)C(F)(F)F)on4)c3)c2cc1OC
Kd [1]: 6.6 µM | Kd [2]: 1.6 µM | Kd [3]: 4.7 µM | Kd [4]: 0.51 µM | Kd [5]: 3.2 µM | Kd [6]: 0.056 µM | Kd [7]: 0.45 µM | Kd [8]: 0.036 µM | Kd [9]: 0.086 µM | Kd [10]: 2 µM | Kd [11]: 30 µM | Kd [12]: 12 µM | Kd [13]: 0.0099 µM | Kd [14]: 20 µM | Kd [15]: 15 µM | Kd [16]: 13 µM | Kd [17]: 31 µM | Kd [18]: 16 µM | Kd [19]: 28 µM | Kd [20]: 26 µM | Kd [21]: 0.0093 µM | Kd [22]: 0.034 µM | Kd [23]: 3.8 µM | Kd [24]: 26 µM
